What is called IC50 is the concentration needed to halve the response being measured.

Each structure is given as a SMILES string.

This is an account of results in patent US20150011508A1, “COMPOUNDS AND COMPOSITIONS AS C-KIT KINASE INHIBITORS” (priority 2011, published 2015).

The target of the test is T1, c-kit (Homo sapiens, UniProt P10721).
T1 construct: human Mo7e cells which endogenously express c-kit; endogenous in cells; host or cells: human Mo7e cells (SCF-dependent promegakaryocytic leukemia line)
T1 sequence (P10721 26-976): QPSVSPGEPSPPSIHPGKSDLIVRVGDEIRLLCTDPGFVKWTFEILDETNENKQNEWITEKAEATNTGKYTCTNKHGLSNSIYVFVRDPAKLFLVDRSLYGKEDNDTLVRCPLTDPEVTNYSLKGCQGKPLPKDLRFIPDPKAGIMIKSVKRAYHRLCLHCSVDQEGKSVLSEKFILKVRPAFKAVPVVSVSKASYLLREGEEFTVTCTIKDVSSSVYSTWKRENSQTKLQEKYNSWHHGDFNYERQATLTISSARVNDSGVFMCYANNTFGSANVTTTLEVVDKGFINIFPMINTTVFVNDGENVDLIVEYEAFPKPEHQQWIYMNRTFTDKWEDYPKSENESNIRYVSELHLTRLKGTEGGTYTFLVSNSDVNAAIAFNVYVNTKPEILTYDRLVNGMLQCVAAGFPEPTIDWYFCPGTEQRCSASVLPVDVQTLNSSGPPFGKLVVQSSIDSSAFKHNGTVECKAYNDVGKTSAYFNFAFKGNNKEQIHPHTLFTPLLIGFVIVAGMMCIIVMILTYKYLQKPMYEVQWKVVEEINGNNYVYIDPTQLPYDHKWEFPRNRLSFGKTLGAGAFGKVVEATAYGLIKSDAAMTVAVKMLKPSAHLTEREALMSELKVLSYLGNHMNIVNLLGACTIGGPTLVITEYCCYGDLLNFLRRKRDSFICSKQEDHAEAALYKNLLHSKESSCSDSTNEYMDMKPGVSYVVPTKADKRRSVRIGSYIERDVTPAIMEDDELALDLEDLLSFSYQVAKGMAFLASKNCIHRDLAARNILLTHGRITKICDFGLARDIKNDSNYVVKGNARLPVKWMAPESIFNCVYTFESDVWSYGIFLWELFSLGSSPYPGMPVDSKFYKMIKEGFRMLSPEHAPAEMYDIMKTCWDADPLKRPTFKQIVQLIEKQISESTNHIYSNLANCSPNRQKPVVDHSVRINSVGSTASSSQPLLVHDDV
Description: Mo7e cell proliferation assay (SCF dependent proliferation). As to conditions: Table 2; human Mo7e cells stimulated with human recombinant SCF, 48 h, CellTiter Glo; 1% FBS (footnote). In kind it is cell-based. Put shortly:
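SCF-dependent proliferation of human Mo7e cells, which express c-kit endogenously, was measured after 48 h at 37° C by CellTiter Glo luminescence. IC50 was taken as the concentration giving a response halfway between the baseline and maximum responses.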
(In general: ATP-based viability assays read luminescence as a measure of living cells.)
Consider `COC(=O)NCCc1nc(-c2ccc(C)c(NC(=O)c3cnc4ccccn34)c2)no1` [F122], for which the IC50 was found to be 0.326 µM.

For the compound `COCCOC(=O)NCCc1nc(-c2ccc(C)c(NC(=O)c3cnc4ccccn34)c2)no1` [F123], the IC50 came out at 0.305 µM.

As to `Cc1ccc(-c2noc(CO)n2)cc1NC(=O)c1cnc2ccccn12` [F124], the IC50 came out at 0.217 µM.

For `Cc1ccc(-c2noc([C@H](C)N)n2)cc1NC(=O)c1cnc2ccccn12` [F125], the IC50 was 0.889 µM.

With `Cc1ccc(-c2noc([C@@H](C)NC(=O)OC(C)(C)C)n2)cc1NC(=O)c1cnc2ccccn12` [F126], the IC50 is 0.102 µM.

Consider `Cc1ccc(-c2noc([C@@H](C)N)n2)cc1NC(=O)c1cnc2ccccn12` [F127], for which the IC50 worked out at 0.196 µM.

For the compound `COC(=O)NCc1nc(-c2ccc(C)c(NC(=O)c3cnc4ccccn34)c2)no1` [F128], the IC50 came out at 0.113 µM.

Turning to `Cc1ccc(-c2noc(CNS(C)(=O)=O)n2)cc1NC(=O)c1cnc2ccccn12` [F129], the IC50 amounted to 0.124 µM.

Regarding `COCc1nc(-c2ccc(C)c(NC(=O)c3cnc4ccccn34)c2)no1` [F130], the IC50 came to 0.142 µM.

With `COCCNC(=O)OCc1nc(-c2ccc(C)c(NC(=O)c3cnc4ccccn34)c2)no1` [F131], the half-inhibitory concentration (IC50) is 0.139 µM.

As for `COCC(=O)NCc1nc(-c2ccc(C)c(NC(=O)c3cnc4ccccn34)c2)no1` [F132], the 50% inhibitory concentration (IC50) came out at 0.319 µM.

For `CO[C@@H](C)C(=O)NCc1nc(-c2ccc(C)c(NC(=O)c3cnc4ccccn34)c2)no1` [F133], the IC50 was determined as 0.183 µM.

Take `Cc1ccc(-c2noc(CNC(=O)C(C)(C)O)n2)cc1NC(=O)c1cnc2ccccn12` [F134]: the half-maximal inhibitory concentration (IC50) was found to be 0.173 µM.

For the compound `COC(=O)N[C@@H](C)c1nc(-c2ccc(C)c(NC(=O)c3cnc4ccccn34)c2)no1` [F135], the IC50 came to 0.166 µM.

`Cc1ccc(-c2noc([C@H](C)NS(C)(=O)=O)n2)cc1NC(=O)c1cnc2ccccn12` [F136]: the IC50 turned out to be 0.145 µM.

As for `COC(=O)N[C@H](C)c1nc(-c2ccc(C)c(NC(=O)c3cnc4ccccn34)c2)no1` [F137], the IC50 was 0.193 µM.

Turning to `Cc1ccc(-c2noc(CC(C)(C)O)n2)cc1NC(=O)c1cnc2ccccn12` [F138], the IC50 came to 0.233 µM.

Take `COCCCc1nc(-c2ccc(F)c(NC(=O)c3cnc4ccccn34)c2)no1` [F139]: the IC50 was 0.394 µM.

With `CC(=O)N[C@@H](C)c1nc(-c2ccc(C)c(NC(=O)c3cnc4ccccn34)c2)no1` [F140], the IC50 came to 1.34 µM.

With `CC(=O)NCc1nc(-c2ccc(C)c(NC(=O)c3cnc4ccccn34)c2)no1` [F141], the IC50 worked out at 0.867 µM.

On to `Cc1ccc(-c2noc(C[C@@H](C)NC(=O)OC(C)(C)C)n2)cc1NC(=O)c1cnc2ccccn12` [F142], for which the IC50 worked out at 0.294 µM.

As for `Cc1ccc(-c2noc(C(C)(C)NC(=O)OC(C)(C)C)n2)cc1NC(=O)c1cnc2ccccn12` [F143], the IC50 worked out at 0.201 µM.

As to `Cc1ccc(-c2noc(CN(C)S(C)(=O)=O)n2)cc1NC(=O)c1cnc2ccccn12` [F144, N-(2-methyl-5-(5-((N-methylmethylsulfonamido)methyl)-1,2,4-oxadiazol-3-yl)phenyl)imidazo[1,2-a]pyridine-3-carboxamide], the 50% inhibitory concentration (IC50) was determined as 0.156 µM.

For `CCNCc1nc(-c2ccc(C)c(NC(=O)c3cnc4ccccn34)c2)no1` [F145], the IC50 was determined as 0.219 µM.

As for `Cc1ccc(-c2noc(CC(=O)O)n2)cc1NC(=O)c1cnc2ccccn12` [F146], the IC50 turned out to be 0.381 µM.

Regarding `Cc1ccc(-c2noc(C(C)(C)NS(C)(=O)=O)n2)cc1NC(=O)c1cnc2ccccn12` [F147], the half-inhibitory concentration (IC50) was 0.457 µM.

`COC(=O)NC(C)(C)c1nc(-c2ccc(C)c(NC(=O)c3cnc4ccccn34)c2)no1` [F148]: the 50% inhibitory concentration (IC50) was found to be 0.208 µM.

With `Cc1ccc(-c2noc(C[C@@H](C)NS(C)(=O)=O)n2)cc1NC(=O)c1cnc2ccccn12` [F149], the IC50 is 0.22 µM.

`COC(=O)N[C@H](C)Cc1nc(-c2ccc(C)c(NC(=O)c3cnc4ccccn34)c2)no1` [F150]: the IC50 amounted to 0.196 µM.

For `COCCCN(Cc1nc(-c2ccc(C)c(NC(=O)c3cnc4ccccn34)c2)no1)C(=O)C(F)(F)F` [F151], the IC50 turned out to be 0.134 µM.

Regarding `CC(C)(C)OC(=O)NCc1nc(-c2ccc(F)c(NC(=O)c3cnc4ccccn34)c2)no1` [F152], the half-maximal inhibitory concentration (IC50) turned out to be 0.207 µM.

`O=C(Nc1cc(-c2noc(CC(O)(C(F)(F)F)C(F)(F)F)n2)ccc1F)c1cnc2ccccn12` [F153]: the IC50 amounted to 0.246 µM.

Take `Cc1ccc(-c2noc(CNC(=O)CCC(F)(F)F)n2)cc1NC(=O)c1cnc2ccccn12` [F154]: the half-maximal inhibitory concentration (IC50) turned out to be 0.182 µM.

Turning to `COCCOCc1nc(-c2cc(NC(=O)c3cnc4ccccn34)c(C)cc2F)no1` [F155], the IC50 was found to be 0.396 µM.

Consider `Cc1cc(F)c(-c2noc(CNC(=O)OC(C)(C)C)n2)cc1NC(=O)c1cnc2ccccn12` [F156], for which the IC50 amounted to 0.198 µM.

`Cc1ccc(-c2noc(CNC(=O)OCCF)n2)cc1NC(=O)c1cnc2ccccn12` [F157]: the IC50 came to 0.155 µM.

Consider `COC(=O)NCc1nc(-c2ccc(C)c(NC(=O)c3cnc4cc(C#N)ccn34)c2)no1` [F158], for which the IC50 is 0.779 µM.

On to `COC(=O)NCc1nc(-c2ccc(C)c(NC(=O)c3cnc4cc(F)ccn34)c2)no1` [F159], for which the IC50 stood at 0.184 µM.

`Cc1ccc(-c2noc(C(F)F)n2)cc1NC(=O)c1cnc2ccccn12` [F160]: the concentration for half-maximal inhibition (IC50) is 0.48 µM.

Take `Cc1ccc(-c2noc(CF)n2)cc1NC(=O)c1cnc2ccccn12` [F161]: the IC50 was determined as 0.173 µM.

Consider `Cc1ccc(-c2noc(C(O)C(F)(F)F)n2)cc1NC(=O)c1cnc2ccccn12` (stereo not drawn) [F162], for which the concentration for half-maximal inhibition (IC50) was found to be 0.266 µM.

With `Cc1ccc(-c2noc(COCCO)n2)cc1NC(=O)c1cnc2ccccn12` [F163], the 50% inhibitory concentration (IC50) is 0.192 µM.

In the case of `Cc1ccc(-c2noc(CNC(=O)N(C)C)n2)cc1NC(=O)c1cnc2ccccn12` [F164], the IC50 is 0.965 µM.

For the compound `COCCOC(=O)NCc1nc(-c2ccc(C)c(NC(=O)c3cnc4ccccn34)c2)no1` [F165], the IC50 turned out to be 0.512 µM.

In the case of `Cc1ccc(-c2noc(CNC(=O)CCOCC(F)(F)F)n2)cc1NC(=O)c1cnc2ccccn12` [F166], the IC50 was 0.213 µM.

As to `COC(=O)NCc1nc(-c2ccc(C)c(NC(=O)c3cnc4ccc(F)cn34)c2)no1` [F167, methyl (3-(3-(6-fluoroimidazo[1,2-a]pyridine-3-carboxamido)-4-methylphenyl)-1,2,4-oxadiazol-5-yl)methylcarbamate], the concentration for half-maximal inhibition (IC50) amounted to 0.166 µM.

For the compound `COC(=O)NCc1nc(-c2ccc(C)c(NC(=O)c3cnc4ccc(C#N)cn34)c2)no1` [F168], the IC50 amounted to 0.22 µM.

As to `Cc1ccc(-c2noc(CCC(C)(C)O)n2)cc1NC(=O)c1cnc2cc(F)ccn12` [F169], the IC50 is 0.142 µM.

`COC(=O)NCc1nc(-c2ccc(C)c(NC(=O)c3cnc4cc(C(F)(F)F)ccn34)c2)no1` [F170]: the IC50 was 0.462 µM.

For the compound `Cc1ccc(-c2noc(C(CC(F)(F)F)N(C)C)n2)cc1NC(=O)c1cnc2ccccn12` (stereo not drawn) [F171], the IC50 was 0.182 µM.

As to `CC(=O)OCc1nc(-c2ccc(C)c(NC(=O)c3cnc4ccccn34)c2)no1` [F172], the IC50 is 0.156 µM.

For `Cc1ccc(-c2noc(C(C)(C)O)n2)cc1NC(=O)c1cnc2ccccn12` [F173], the IC50 was determined as 0.281 µM.

As for `Cc1ccc(Nc2noc(C(C)C)n2)cc1NC(=O)c1cnc2ccccn12` [F174], the IC50 worked out at 0.284 µM.

As for `Cc1ccc(-c2noc(COCCOCC(F)(F)F)n2)cc1NC(=O)c1cnc2ccc(F)cn12` [F175], the IC50 stood at 0.104 µM.
